Columns and labels:
Type in all cases: cell-based
[1] = tested on: human rhabdosarcoma cells; test: Recoding via quantification of pRB and P53, rhabdosarcoma cells; details: Table 6, peptide in association with PET
Procedure: (§1) The cells were first fixed for 20 min with 4% paraformaldehyde/PBS at 4° C. After fixation, the cells were permeabilized in PBS containing 1% Triton X-100 for 15 min. Protein immunofluorescent visualization was performed by first treating the cells with 1% (v/v) specific monoclonal antibodies for 1 hour at 37° C. Then the samples were incubated with Alexa Fluor® 568 or 647 (F(ab′)2 fragment of IgG(H+L)) during 30 min at room temperature. The cell nuclei were counterstained in 20 ng/mL DAPI for 10 min at room temperature.
(§2) For this type of quantification the freeware image analysis ImageJ® software was used. The raw image was first converted to an 8-bit file, and then the unsharp mask feature was used (settings 1:0.2) to remove the image background (rolling ball radius 10). After smoothing, the resulting image, which appears similar to the original photomicrograph but with minimal background, was then converted to a binary image by setting a threshold. Threshold values were determined empirically by selecting a setting, which gave the most accurate binary image for a subset of randomly selected photomicrographs. The cell area was determined by manual delineation on raw fluorescent images. Total contact area and mean contact area per cell were calculated by “analyse particules” in ImageJ®. A minimum of 50 cells per condition were analyzed. […]

[2] = tested on: human adenocarcinoma cells; test: Recoding via quantification of pRB and P53, adenocarcinoma cells; details: Table 6, peptide in association with PET
Procedure: as §1, §2

[3] = tested on: mesenchymal chondrosarcoma cells; test: Recoding via quantification of pRB and P53, chondrosarcoma cells; details: Table 6, peptide in association with PET
Procedure: as §1, §2

[4] = tested on: Smad1/5/8 signaling pathway; test: Growth factor receptor activation: western blot quantification of phospho-smad1/5/8; details: Table 4; human osteosarcoma cells MG63; quantification of western blots of phospho-smad1/5/8
Procedure: After 24 hours of culture, cells were permeabilized (10% SDS, 25 mM NaCl, 10 nM pepstatin and 10 nM leupeptin in distilled water and loading buffer), boiled for 10 minutes and resolved by reducing PAGE (Invitrogen). Proteins were transferred onto nitrocellulose, blocked, and labeled with HRP-conjugated antibodies (Invitrogen). Integrin αv, α5, +3, α4, β1, β3, β5 and […] were blotted by treating the nitrocellulose with monoclonal anti-integrin (extracellular domain) αv, α5, +3, α4, β1, β3, β5 and β6 antibodies (Santa Cruz Biotechnology). Phosphor-Smad1/5/8 was blotted by treating the nitrocellulose with monoclonal anti-p-Smad1/5/8 (Santa Cruz Biotechnology). For all of the experiments the western blot was performed in triplicate, along with an additional blot for actin and coomassie blue staining to ensure constant protein load among samples.

[5] = tested on: human osteosarcoma cells, MG63; test: Tumor cell recoding via quantification of pRB and p53 (immunofluorescence staining, ImageJ); details: MG63, quantification of pRB
Procedure: as §1
For this type of quantification the freeware image analysis ImageJ® software was used. The raw image was first converted to an 8-bit file, and then the unsharp mask feature was used (settings 1:0.2) to remove the image background (rolling ball radius 10). After smoothing, the resulting image, which appears similar to the original photomicrograph but with minimal background, was then converted to a binary image by setting a threshold. Threshold values were determined empirically by selecting a setting, which gave the most accurate binary image for a subset of randomly selected photomicrographs. The cell area was determined by manual delineation on raw fluorescent images. Total contact area and mean contact area per cell were calculated by “analyse particules” in ImageJ®. A minimum of 50 cells per condition were analyzed.
Neoplastic cells (in this example osteosarcoma cells) were cultured on pharmaceutical associations comprising PET as a bioactive carrier and one of GFR-binding compounds of SEQ ID NO: 11 to 14, 24 to 26 and 51 to 63. A rapid (24 hours) decrease of the tumor markers was observed (FIG. 7). The adhesion checkpoint then activates the tumor suppressor proteins p53 and pRB. […]

Sequence: AASKASSSRVELRSVKIAKV (Non-cyclic GFR-binding peptide) [SEQ ID NO: 210]
- P53 (%) [1]: 42%
- pRB (%) [1]: 22%

Sequence: AASKASSSRVKMSPINVLYF (Non-cyclic GFR-binding peptide) [SEQ ID NO: 225]
- P53 (%) [2]: 25%
- pRB (%) [2]: 12%

Sequence: AASKASSTPTDLNAISTLYF (Non-cyclic GFR-binding peptide) [SEQ ID NO: 216]
- P53 (%) [1]: 27%
- pRB (%) [1]: 19%

Sequence: AASKASSVPEKMRPVQTRKI (Non-cyclic GFR-binding peptide) [SEQ ID NO: 237]
- P53 (%) [2]: 42%
- pRB (%) [2]: 22%

Sequence: AASKASSVPQRLRSVKVAKV (Non-cyclic GFR-binding peptide) [SEQ ID NO: 235]
- P53 (%) [2]: 40%
- pRB (%) [2]: 26%

Sequence: GIPEPSSAPTRLEPISMLYL (Non-cyclic GFR-binding peptide) [SEQ ID NO: 222]
- P53 (%) [3]: 36%
- pRB (%) [3]: 8%

Sequence: GIPEPSSAPVDMRPVQIRKI (Non-cyclic GFR-binding peptide) [SEQ ID NO: 238]
- P53 (%) [2]: 40%
- pRB (%) [2]: 23%

Sequence: GIPEPSSAPVEEEPLTTLYY (Non-cyclic GFR-binding peptide) [SEQ ID NO: 232]
- P53 (%) [2]: 21%
- pRB (%) [2]: 13%

Sequence: GIPEPSSAPVGQEPLPMVYY (Non-cyclic GFR-binding peptide) [SEQ ID NO: 230]
- P53 (%) [2]: 30%
- pRB (%) [2]: 19%

Sequence: GIPEPSSVSQEESSLSTLFF (Non-cyclic GFR-binding peptide) [SEQ ID NO: 214]
- P53 (%) [1]: 31%
- pRB (%) [1]: 18%

Sequence: GIPEPSSVSQELSATSMLYY (Non-cyclic GFR-binding peptide) [SEQ ID NO: 218]
- P53 (%) [3]: 28%
- pRB (%) [3]: 17%

Sequence: KIPKASSSRVRLSSLSTLFF (Non-cyclic GFR-binding peptide) [SEQ ID NO: 215]
- P53 (%) [1]: 30%
- pRB (%) [1]: 19%

Sequence: KIPKASSTPTRLSPISMLFI (Non-cyclic GFR-binding peptide) [SEQ ID NO: 221]
- P53 (%) [3]: 37%
- pRB (%) [3]: 21%

Sequence: KIPKASSTQVGQSATSILYY (Non-cyclic GFR-binding peptide) [SEQ ID NO: 219]
- P53 (%) [3]: 31%
- pRB (%) [3]: 14%

Sequence: KIPKASSTQVRLRPVQIRKI (Non-cyclic GFR-binding peptide) [SEQ ID NO: 211]
- P53 (%) [1]: 42%
- pRB (%) [1]: 19%

Sequence: KIPKASSTQVRLRSVKTAKV (Non-cyclic GFR-binding peptide) [SEQ ID NO: 236]
- P53 (%) [2]: 37%
- pRB (%) [2]: 25%

Sequence: KIPKASSVPAQLEPLPIVYY (Non-cyclic GFR-binding peptide) [SEQ ID NO: 229]
- P53 (%) [2]: 31%
- pRB (%) [2]: 23%

Sequence: KIPKASSVPTKMKPLSVLYV (Non-cyclic GFR-binding peptide) [SEQ ID NO: 226]
- P53 (%) [2]: 31%
- pRB (%) [2]: 16%

Sequence: KIPKASSVSQQLEPISTLYL (Non-cyclic GFR-binding peptide) [SEQ ID NO: 223]
- P53 (%) [3]: 29%
- pRB (%) [3]: 9%

Sequence: RVPSTSSAPTKMKPLSMLYV (Non-cyclic GFR-binding peptide) [SEQ ID NO: 227]
- P53 (%) [2]: 32%
- pRB (%) [2]: 14%

Sequence: RVPSTSSTQVDLNAISVLYF (Non-cyclic GFR-binding peptide) [SEQ ID NO: 217]
- P53 (%) [1]: 24%
- pRB (%) [1]: 18%

Sequence: RVPSTSSTQVKMSAISMLYL (Non-cyclic GFR-binding peptide) [SEQ ID NO: 213]
- P53 (%) [1]: 26%
- pRB (%) [1]: 12%

Sequence: RVPSTSSVPAEESNITVQIM (Non-cyclic GFR-binding peptide) [SEQ ID NO: 234]
- P53 (%) [2]: 45%
- pRB (%) [2]: 22%

Sequence: RVPSTSSVPEKMEPLTMLYY (Non-cyclic GFR-binding peptide) [SEQ ID NO: 231]
- P53 (%) [2]: 22%
- pRB (%) [2]: 18%

Sequence: STPPTSSAPVGQSPISMLYI (Non-cyclic GFR-binding peptide) [SEQ ID NO: 220]
- P53 (%) [3]: 34%
- pRB (%) [3]: 15%

Sequence: STPPTSSSRVQLSAISMLYL (Non-cyclic GFR-binding peptide) [SEQ ID NO: 212]
- P53 (%) [1]: 27%
- pRB (%) [1]: 11%

Sequence: STPPTSSTPTKMSNITTQIM (Non-cyclic GFR-binding peptide) [SEQ ID NO: 233]
- P53 (%) [2]: 43%
- pRB (%) [2]: 23%

Sequence: STPPTSSVPTEVSPINTLYF (Non-cyclic GFR-binding peptide) [SEQ ID NO: 224]
- P53 (%) [3]: 26%
- pRB (%) [3]: 13%

Sequence: STPPTSSVSQKMKPLSILYV (Non-cyclic GFR-binding peptide) [SEQ ID NO: 228]
- P53 (%) [2]: 26%
- pRB (%) [2]: 18%

Sequence: YVPKPSSAPTKLNAISVLYF (Non-cyclic GFR-binding peptide) [SEQ ID NO: 99]
- p-Smad1/5/8 (%) [4]: 66%
- pRB (%) ([5]; Table 4): 21%
- pRB (%) ([5]; Table 5): 21%

Sequence: YVPKPSSTPTKLSPINMLYF (Non-cyclic GFR-binding peptide) [SEQ ID NO: 66]
- p-Smad1/5/8 (%) [4]: 38%
- pRB (%) ([5]; Table 4): 8%
- pRB (%) ([5]; Table 5): 8%
